Measured values published in paper PMC12814486 (Bioorganic & medicinal chemistry, 2025).
In brackets after ≈: the same amount, converted by molar mass.

Assays:
human FAAH = target: T1, human FAAH (Homo sapiens, UniProt O00519); assay: FAAH inhibition assay; format: biochemical
T1 sequence (O00519 1-579): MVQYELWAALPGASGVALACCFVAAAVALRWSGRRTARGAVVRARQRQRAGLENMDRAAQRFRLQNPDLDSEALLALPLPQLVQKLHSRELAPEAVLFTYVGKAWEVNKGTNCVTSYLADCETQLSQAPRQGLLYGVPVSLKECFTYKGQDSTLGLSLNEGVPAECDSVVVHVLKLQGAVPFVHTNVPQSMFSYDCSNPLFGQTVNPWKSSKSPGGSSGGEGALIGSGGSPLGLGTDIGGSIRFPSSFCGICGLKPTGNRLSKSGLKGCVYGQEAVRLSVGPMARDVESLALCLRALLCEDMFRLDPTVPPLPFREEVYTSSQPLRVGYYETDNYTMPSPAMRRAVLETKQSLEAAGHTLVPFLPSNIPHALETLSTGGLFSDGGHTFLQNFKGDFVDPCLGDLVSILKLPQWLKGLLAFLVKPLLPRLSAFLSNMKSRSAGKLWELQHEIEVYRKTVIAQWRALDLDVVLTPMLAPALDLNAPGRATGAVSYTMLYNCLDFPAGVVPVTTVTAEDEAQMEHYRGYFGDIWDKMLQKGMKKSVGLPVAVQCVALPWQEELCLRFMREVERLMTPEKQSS

human sEH = target: T2, human sEH (Homo sapiens, UniProt P34913); assay: sEH inhibition assay; format: biochemical
T2 sequence (P34913 1-555): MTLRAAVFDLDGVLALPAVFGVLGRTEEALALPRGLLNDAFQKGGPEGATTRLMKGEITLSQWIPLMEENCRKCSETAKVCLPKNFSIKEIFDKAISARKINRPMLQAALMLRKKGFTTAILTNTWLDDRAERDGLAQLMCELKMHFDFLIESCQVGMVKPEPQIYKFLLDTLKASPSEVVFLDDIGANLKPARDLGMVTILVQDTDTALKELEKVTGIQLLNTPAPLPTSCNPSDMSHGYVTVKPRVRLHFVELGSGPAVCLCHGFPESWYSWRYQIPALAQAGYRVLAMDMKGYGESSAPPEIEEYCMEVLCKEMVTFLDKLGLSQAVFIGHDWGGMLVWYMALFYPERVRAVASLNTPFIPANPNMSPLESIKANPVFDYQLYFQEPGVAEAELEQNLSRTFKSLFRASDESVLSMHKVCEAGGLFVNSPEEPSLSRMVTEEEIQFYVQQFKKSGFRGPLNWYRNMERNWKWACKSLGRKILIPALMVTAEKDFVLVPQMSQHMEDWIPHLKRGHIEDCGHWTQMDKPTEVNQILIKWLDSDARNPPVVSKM

mouse sEH = target: T3, mouse sEH (Mus musculus, UniProt P34914); assay: sEH inhibition assay; format: biochemical
T3 sequence (P34914 1-554): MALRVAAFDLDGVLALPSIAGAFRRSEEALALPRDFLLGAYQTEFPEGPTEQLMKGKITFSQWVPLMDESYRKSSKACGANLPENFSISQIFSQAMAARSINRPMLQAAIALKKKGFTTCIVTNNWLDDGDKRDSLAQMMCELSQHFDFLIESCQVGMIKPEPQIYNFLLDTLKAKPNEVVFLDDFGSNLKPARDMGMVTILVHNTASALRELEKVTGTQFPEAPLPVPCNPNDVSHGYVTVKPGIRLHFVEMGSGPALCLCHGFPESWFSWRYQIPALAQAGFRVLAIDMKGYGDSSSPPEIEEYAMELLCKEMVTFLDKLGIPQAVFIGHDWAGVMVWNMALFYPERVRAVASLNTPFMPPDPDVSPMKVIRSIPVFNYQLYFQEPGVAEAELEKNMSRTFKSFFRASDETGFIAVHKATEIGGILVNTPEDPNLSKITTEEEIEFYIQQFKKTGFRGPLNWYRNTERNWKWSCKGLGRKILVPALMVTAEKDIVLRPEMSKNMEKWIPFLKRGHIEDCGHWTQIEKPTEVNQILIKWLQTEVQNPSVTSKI

rat sEH = target: T4, rat sEH (Rattus norvegicus, UniProt P80299); assay: sEH inhibition assay; format: biochemical
T4 sequence (P80299 1-554): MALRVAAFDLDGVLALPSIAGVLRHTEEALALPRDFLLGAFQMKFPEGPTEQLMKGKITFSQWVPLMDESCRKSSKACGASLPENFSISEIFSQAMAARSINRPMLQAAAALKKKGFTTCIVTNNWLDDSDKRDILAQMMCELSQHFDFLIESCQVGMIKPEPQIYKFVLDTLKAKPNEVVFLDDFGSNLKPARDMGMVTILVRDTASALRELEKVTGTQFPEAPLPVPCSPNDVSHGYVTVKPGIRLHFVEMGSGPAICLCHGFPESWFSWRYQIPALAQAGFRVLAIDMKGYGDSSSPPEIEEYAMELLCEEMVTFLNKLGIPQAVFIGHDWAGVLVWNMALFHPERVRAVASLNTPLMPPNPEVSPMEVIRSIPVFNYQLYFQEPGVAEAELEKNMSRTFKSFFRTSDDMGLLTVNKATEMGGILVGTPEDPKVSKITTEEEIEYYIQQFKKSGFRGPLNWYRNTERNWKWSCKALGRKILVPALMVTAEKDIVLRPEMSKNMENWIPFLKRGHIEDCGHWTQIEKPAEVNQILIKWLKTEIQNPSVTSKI

Solubility assay = format: physicochemical; conditions: sodium phosphate buffer, pH 7.4, aqueous buffer, kinetic from dmso stock
microsomal EH = target: T5, microsomal EH (Homo sapiens, UniProt P07099); assay: Microsomal EH inhibition; format: biochemical; conditions: see Supplemental Data
T5 sequence (P07099 1-455): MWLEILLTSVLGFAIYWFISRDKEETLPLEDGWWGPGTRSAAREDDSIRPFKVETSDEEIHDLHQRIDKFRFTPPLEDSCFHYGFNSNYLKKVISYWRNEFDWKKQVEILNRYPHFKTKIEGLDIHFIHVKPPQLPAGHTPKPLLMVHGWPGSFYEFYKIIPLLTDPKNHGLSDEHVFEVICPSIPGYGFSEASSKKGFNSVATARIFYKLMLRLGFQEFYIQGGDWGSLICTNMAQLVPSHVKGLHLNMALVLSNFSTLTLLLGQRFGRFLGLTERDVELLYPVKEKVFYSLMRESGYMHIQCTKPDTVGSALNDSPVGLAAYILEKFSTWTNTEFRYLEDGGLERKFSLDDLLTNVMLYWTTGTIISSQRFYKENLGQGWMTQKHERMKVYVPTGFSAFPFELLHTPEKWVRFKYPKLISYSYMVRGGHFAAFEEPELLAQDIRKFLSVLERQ

EH3 = target: T6, EH3 (Homo sapiens, UniProt Q9H6B9); assay: EH3 inhibition; format: biochemical; conditions: see Supplemental Data
T6 sequence (Q9H6B9 1-360): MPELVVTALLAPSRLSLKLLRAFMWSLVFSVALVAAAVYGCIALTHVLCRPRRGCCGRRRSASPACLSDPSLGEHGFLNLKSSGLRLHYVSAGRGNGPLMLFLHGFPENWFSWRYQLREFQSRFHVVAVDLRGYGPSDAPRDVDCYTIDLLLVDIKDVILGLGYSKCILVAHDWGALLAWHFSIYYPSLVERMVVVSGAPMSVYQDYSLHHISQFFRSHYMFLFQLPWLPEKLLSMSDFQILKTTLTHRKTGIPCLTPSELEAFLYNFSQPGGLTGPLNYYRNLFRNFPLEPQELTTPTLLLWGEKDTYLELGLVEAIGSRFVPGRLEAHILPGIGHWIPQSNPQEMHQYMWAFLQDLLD

COc1cn2c(-c3ccc(NC(=O)C4CCN(S(=O)(=O)c5ccccc5Cl)CC4)cc3)nnc2c(OC)n1 [Compound 4r, 1-((2-chlorophenyl)sulfonyl)-N-(4-(6,8-dimethoxy-[1,2,4]triazolo[4,3-a]pyrazin-3-yl)phenyl)piperidine-4-carboxamide]
IC50 (human FAAH): > 10000 nM
IC50 (human sEH): 19.4 nM
IC50 (mouse sEH): 9 nM
IC50 (rat sEH): 21.8 nM
solubility (Solubility assay): 31 to 63 µM (≈ 17.3 to 35.1 µg/mL)
inhibition of microsomal EH (microsomal EH): does not inhibit
inhibition of EH3 (EH3): does not inhibit
